Results: patent US20260306500A1, “METHOD OF INHIBITING ADENOSINE TRIPHOSPHATE SECRETION, METHOD OF INHIBITING HEPATIC STELLATE CELL ACTIVATION, METHOD OF DEACTIVATING HEPATIC STELLATE CELL, METHOD OF TREATING HEPATIC FIBROSIS, METHOD OF TREATING NON-ALCOHOLIC STEATOHEPATITIS, AND METHOD OF TREATING PSORIASIS” (Kurume University, priority 2023, published 2026)

Experiments:
V-ATPase = molecular target: T1, V-ATPase (Bos taurus, UniProt P31404+P31408); assay: ATP-dependent proton transport by V-ATPase (acridine orange fluorescence quenching); format: biochemical, cattle; conditions: role: inhibitor
T1 construct: Chromaffin granule membranes were prepared from adrenal glands collected from slaughtered cattle; from tissue; host or cells: cattle adrenal glands, chromaffin granule membranes (sucrose density gradient)
T1 sequence (P31404 whole entry, looked up): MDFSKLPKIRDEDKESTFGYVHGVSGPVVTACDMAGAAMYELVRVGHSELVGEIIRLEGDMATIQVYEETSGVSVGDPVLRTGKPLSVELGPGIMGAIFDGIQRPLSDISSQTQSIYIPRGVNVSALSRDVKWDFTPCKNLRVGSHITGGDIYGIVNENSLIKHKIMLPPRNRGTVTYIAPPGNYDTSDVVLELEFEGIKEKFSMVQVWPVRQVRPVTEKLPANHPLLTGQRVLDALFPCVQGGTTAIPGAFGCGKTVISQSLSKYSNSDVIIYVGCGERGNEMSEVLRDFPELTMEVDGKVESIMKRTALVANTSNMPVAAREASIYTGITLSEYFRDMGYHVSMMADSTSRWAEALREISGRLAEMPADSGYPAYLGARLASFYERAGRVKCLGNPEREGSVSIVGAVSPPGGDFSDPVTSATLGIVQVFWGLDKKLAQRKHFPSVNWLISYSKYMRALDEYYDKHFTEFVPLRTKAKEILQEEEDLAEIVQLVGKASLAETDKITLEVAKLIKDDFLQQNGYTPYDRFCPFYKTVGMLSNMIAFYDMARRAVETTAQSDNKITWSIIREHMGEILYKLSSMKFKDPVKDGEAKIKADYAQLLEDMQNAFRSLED
T1 sequence (P31408 whole entry, looked up): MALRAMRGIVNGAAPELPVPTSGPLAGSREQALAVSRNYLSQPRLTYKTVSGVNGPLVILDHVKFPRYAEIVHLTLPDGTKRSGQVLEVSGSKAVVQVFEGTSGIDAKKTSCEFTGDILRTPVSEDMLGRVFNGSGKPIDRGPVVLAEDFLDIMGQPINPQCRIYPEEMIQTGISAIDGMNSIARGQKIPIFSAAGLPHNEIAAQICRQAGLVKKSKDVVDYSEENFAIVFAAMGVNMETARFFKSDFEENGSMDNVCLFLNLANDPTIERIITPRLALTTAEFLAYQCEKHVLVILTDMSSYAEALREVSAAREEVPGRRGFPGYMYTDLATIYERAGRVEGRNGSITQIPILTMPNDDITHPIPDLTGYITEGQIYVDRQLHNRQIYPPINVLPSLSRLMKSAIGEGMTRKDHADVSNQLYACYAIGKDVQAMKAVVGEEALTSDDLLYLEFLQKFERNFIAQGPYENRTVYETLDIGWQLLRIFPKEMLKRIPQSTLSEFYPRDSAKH
Procedure: (§1) Chromaffin granule membranes were prepared from adrenal glands collected from slaughtered cattle according to Reference A (Nathan Nelson et al., 1988, Chromaffin Granule Proton Pump, Methods in Enzymology, 157, 619-633). Chromaffin granule membranes prepared by sucrose density gradient centrifugation were suspended in 2 ml of SME buffer (20 mM MOPS-tris (pH 7.0), 0.3 M sucrose, 5 mM EDTA, 10 μg/ml leupeptin, and 10 μg/ml pepstatin)+25% glycerol, and the resulting suspension was aliquoted and stored at −80° C. Under these conditions, the ATP transport activity, the V-ATPase activity, and the catecholamine transport activity remain fully active for at least one year.
ATP-dependent proton transport by V-ATPase was measured according to Reference B. Proton transport activity was measured using a spectrofluorometer at excitation wavelength of 492 nm and a fluorescence wavelength 540 nm, wherein fluorescence quenching of acridine orange was used as an index (N=2). The transmembrane potential generated was measured using a spectrofluorometer at an excitation wavelength of 580 nm and a fluorescence wavelength of 630 nm, wherein fluorescence quenching of oxonol-V was used as an index (N=2). The acridine measurement liquid (2 ml) contained 20 mM MOPS-tris (pH 7.0), 0.2 M sucrose, 0.1 M potassium chloride, 5 mM magnesium acetate, 0.2 μg valinomycin, 2 μM acridine orange, and about 20 μg of chromaffin granules. The oxonol-V measurement liquid (2 ml) contained 20 mM MOPS-tris (pH 7.0), 0.3 M sucrose, 5 mM magnesium acetate, 5 μM oxonol-V, and about 20 μg of chromaffin granules.
(§2) Chromaffin granule membrane vesicles were prepared in the same manner as in Example 5, and uptake of radiolabeled ATP into the vesicles was measured. Transport activity of catecholamine (dopamine) and ATP-dependent proton transport by V-ATPase were also measured in the same manner as in Example 5.

[1] = PEP; cited from earlier work
[2] = test system: chromaffin granule membrane; assay: ATP transport (uptake of radiolabeled ATP) in chromaffin granule membrane vesicles; format: biochemical, cattle; conditions: role: inhibitor; 1 mM 3H-ATP, 30° C., 1 hour, N=3 (FIG. 5); read-out: IC50 (concentration at 50% inhibition) of ATP transport
Procedure: as §1
An ATP transport inhibition experiment for the chromaffin granule membrane was carried out according to Reference B (Yoshinori Moriyama et al., 2022, Is the vesicular nucleotide transporter a molecular target of eicosapentaenoic acid?, Frontiers in Pharmacology, 103389). About 20 μg of chromaffin granule membranes were added to 0.5 ml of measurement buffer (20 mM MOPS-tris (pH 7.0), 0.3 M sucrose, 5 mM potassium chloride, 5 mM magnesium acetate, 5 mM creatine phosphate, 10 units of creatine kinase, and 1 mM 3[H]-ATP [15 KBq/assay]), followed by incubation at 30° C. for 1 hour. Through a Millipore MCE membrane filter with a pore size […], 0.2 ml of the reaction liquid was filtered by suction. Thereafter, the filter was washed with 10 ml of 20 mM MOPS-tris (pH 7.0), 0.3 M sucrose, 5 mM potassium chloride, and 5 mM magnesium acetate, and dissolved in 10 ml of Clear-sol II (manufactured by Nacalai Tesque, Inc.). The radioactivity was then measured using a liquid scintillation counter (N=3).
The reaction was initiated by adding 50 mM ^3[H]-ATP to a final concentration of 1 mM. The 50 mM ^3[H]-ATP was prepared by mixing an ATP-tris solution (manufactured by Sigma-Aldrich) with [2,8-^3H]adenosine triphosphate tetrasodium salt (26.0 Ci/mmol) (manufactured by New England Nuclear). PEP was used as a test reagent, and pyruvic acid was used as a negative control. Five minutes before the addition of ATP, PEP or pyruvic acid, as a solution in 20 mM MOPS-tris (pH 7.0), 0.3 M sucrose, 5 mM potassium chloride, and 5 mM magnesium acetate, was added to the measurement liquid to a final PEP concentration of 0.02, 0.05, 0.1, 0.2, 0.4, or 1 mM, or to a final pyruvic acid concentration of 0.5 or 1 mM.
as §2

[3] = test system: catecholamine transport of chromaffin granule membranes; assay: Catecholamine (dopamine) transport in chromaffin granule membranes; format: biochemical, cattle; conditions: role: inhibitor
Procedure: as §1
A catecholamine transport inhibition experiment was carried out in the same manner as the ATP transport experiment except that the experiment used a measurement liquid containing 20 mM MOPS-tris (pH 7.0), 0.1 M sucrose, 0.1 M potassium chloride, 5 mM magnesium acetate, and about 5 μg of chromaffin granule membranes. To 0.5 ml of the measurement liquid, 2 mM ATP was added, and the resulting mixture was incubated at 30° C. for about 5 minutes, followed by addition of 3[H]-dopamine thereto to a final concentration of 10 μM. After further incubation at 30° C. for 15 minutes, 0.2 ml of the reaction liquid was subjected to suction filtration through a Millipore MCE membrane filter with a pore size of 0.45 μm, and the radioactivity on the filter was measured (N=3). The substrate, 3[H]-dopamine, was prepared by mixing 3,4-[RING-2,5,6-^3H]dihydroxyphenylethylamine (dopamine) (30 Ci/mmol) (manufactured by New England Nuclear) with dopamine hydrochloride (manufactured by LKT Laboratories) such that a final concentration of […] was achieved during the use.
as §2

[4] = clodronate; cited from earlier work
[5] = up to 5 mM PEP (data not shown)

Structure (SMILES) | change in acridine orange quenching level (V-ATPase; 5 mM PEP, in presence of ATP, N=2) | inhibition of V-ATPase (V-ATPase; [5]) | energy of phosphate bond in vivo [1] | IC50 [2] | ATP-dependent dopamine transport activity ([3]; 5 mM PEP, 10 μM 3H-dopamine, 2 mM ATP, N=3, control 11.07±0.129) | inhibition of catecholamine transport [3, 5] | absorption [4] | accumulation in bone [4] | serious side effect [4]
C=C(OP(=O)(O)O)C(=O)O [PEP, phosphoenolpyruvic acid] | did not change the level of quenching | did not inhibit | -14.8 kcal/mol | 25 µM | 12.41±0.250 nmol/mg protein | did not inhibit | – | – | –
O=P(O)(O)C(Cl)(Cl)P(=O)(O)O [clodronate] | – | – | – | – | – | – | extremely low absorption | accumulate in bone | jaw osteonecrosis
